Results published in patent EP4324461A1, “(E)-N-CINAMOYLAMINOALKANOLES WITH MELANOGENESIS INHIBITORY ACTIVITY” (UNIWERSYTET JAGIELLONSKI, priority 2022, dated 2024).

Experiments:
Assay type in all cases: cell-based
Keratinocytes (HaCaT) = assay: Safety, MTT test in keratinocytes; details: 48 hours
Method: (§1) In order to test the safety of the compounds, both normal human cells were used: keratinocytes (HaCaT), fibroblasts (BJ), primary melanocytes that occur in the skin, as well as human cancer cells: the hepatocarcinoma line HepG2 and the neuroblastoma line SH-SY5Y, which are considered a model for the assessment of hepatocytotoxicity and neurocytotoxicity. The concentrations of the tested compounds in the range of 250-100 µM were used in the studies. The cell lines used in the research were purchased from the American Type Culture Collection (ATCC) and were cultured in media recommended by the manufacturer with the addition of FBS and antibiotics in an incubator ensuring appropriate culture conditions, i.e. humidity, temperature and CO2 concentration. Cells were seeded into multiwell plates and incubated with the test compounds for 48 hours. After this time, MTT and LDH tests were performed to assess cell viability. The MTT test is based on the ability to transform the substrate: [3-(4,5-dimethyl-2-thiazolyl)-2,5-diphenyl-2H-tetrazolium bromide into a colored product only by living cells. The absorbance at 570 nm, which corresponds to the absorption maximum for the product, is directly proportional to cell viability. The LDH test is based on testing the activity of the enzyme lactate dehydrogenase in the culture medium, which is released from cells as a result of damage to the cell membrane, e.g. as a result of cell death. Triton X-100 was used as a positive control in the test. The determination is colorimetric, the substrate is transformed by the released enzyme into a colored product, an increase in absorbance indicates a larger amount of the released enzyme, and thus confirms greater damage to cell membranes. Tables 7 and 8 present the results obtained, which correspond to the viability of cells incubated with the compounds in relation to the viability of cells constituting a control sample, i.e. incubated with the solvent (DMSO) at the same concentration as in the case of the groups tested in the MTT test or in relation to the results obtained for the Triton X-100 positive control in the LDH test. They indicate that the compounds are safe at the concentrations tested. Table 7. Viability of tested normal human cell lines: keratinocytes (HaCaT), fibroblasts (BJ) and primary melanocytes after incubation with the tested compounds - determination in the MTT test (% of solvent control ± SD) and LDH (percentage of positive control - Triton X-100.

[1] = test system: Chinese hamster ovary cell line (CHO-K1); assay: Genotoxicity in the micronucleus test in CHO-K1 cells
[2] = test system: reconstructed human epidermis containing melanocytes MelanoDerm™ MEL-300-B; assay: Melanogenesis inhibition in reconstructed human epidermis containing melanocytes (MelanoDerm); details: 14 days; for Melanin content [% control, mean ± SD]: 7 applications; for Viability [% control, mean ± SD]: MTT
Method: (§2) The research was carried out on reconstructed human epidermis containing melanocytes MelanoDerm™ MEL-300-B from MatTek (Bratislava, Slovakia). The ratio of keratinocytes to melanocytes in the epidermis used is 10:1. Only medium purchased from the same manufacturer (EPI-100-NMM-113) was used to culture the epidermis during the experiments. Once the epidermis was obtained, it was transferred to 12-well plates containing 5 mL of medium/well. Plates were used to enable proper contact of the lower parts of the inserts with the substrate (so-called hanging-top plate). Solutions of the compounds were prepared immediately before their application. The solutions were applied to the inserts using a positive displacement pipette and then distributed using a sterile glass bulb headed Pasteur pipette. The application was repeated every 48 hours, a total of 7 applications were performed. Before the next application, each insert was rinsed with sterile DPBS and dried with a sterile cotton buds. The application was also accompanied by a change of the medium. […] The epidermis was cultured in an incubator ensuring appropriate humidity, temperature (37 °C) and CO2 concentration (5%).
The experiment was conducted for 14 days. After this time, the inserts were rinsed with DPBS and dried with a cotton swab. For the selected pool of inserts, tissue viability was assessed using the MTT (Thiazolyl Blue Tetrazolium bromide) test, the remaining ones were used to determine the amount of melanin. To assess viability, the inserts were transferred to 24-well plate containing 0.3 mL of DMEM medium with 1 mg/mL MTT and incubated for 3 hours in an incubator. The epidermis was then placed in 2 mL of isopropanol and the resulting formazan was extracted for 2 hours at room temperature. The absorbance of the samples was measured at 570 nm in a microplate reader and correlated with the absorbance of the control by the formula: % Viability = [OD (570 nm) for test compound/OD (570 nm) for control] × 100. To determine the amount of melanin, the inserts were incubated in 5% sodium bicarbonate for 30 min, then dried and placed in 0.5 mL of Solvable™ reagent, which caused complete lysis of the epidermis. After heating at 95 °C, the absorbance of the samples was measured at 405 nm in a microplate reader. On this basis, the reduction in the amount of melanin was calculated in relation to the control sample. The absorbance results were also correlated with a standard curve for synthetic melanin. […] Table 5. Viability and melanin content in the MelanoDerm epidermis after application of the tested samples, calculated on the basis of absorbance measurements.
as §2, with “Only media” for “Only medium”, “cotton bud.” for “cotton buds.”
The experiment was conducted for 14 days. After this time, the inserts were rinsed with DPBS and dried with a cotton bud. […]

Fibroblasts (BJ) = assay: Safety, MTT test in fibroblasts; details: 48 hours
Method: as §1

Primary melanocytes = assay: Safety, LDH test in primary melanocytes; details: 48 hours, positive control Triton X-100
Method: as §1

| Structure (SMILES) | Keratinocytes (HaCaT) MTT (Keratinocytes (HaCaT); 100 µM) | Keratinocytes (HaCaT) MTT (Keratinocytes (HaCaT); 150 µM) | Keratinocytes (HaCaT) MTT (Keratinocytes (HaCaT); 200 µM) | Keratinocytes (HaCaT) MTT (Keratinocytes (HaCaT); 250 µM) | DB (dicentric bridges in 1000 binucleate cells) ([1]; 100 µM) | MN (number of micronuclei in 1000 binucleate cells) ([1]; 100 µM) | NB (nuclear buds in 1000 binucleate cells) ([1]; 100 µM) | NDI (nuclear division index) ([1]; 100 µM) | DB (dicentric bridges in 1000 binucleate cells) ([1]; 150 µM) | MN (number of micronuclei in 1000 binucleate cells) ([1]; 150 µM) | NB (nuclear buds in 1000 binucleate cells) ([1]; 150 µM) | NDI (nuclear division index) ([1]; 150 µM) | Fibroblasts (BJ) MTT (Fibroblasts (BJ); 100 µM) | Fibroblasts (BJ) MTT (Fibroblasts (BJ); 150 µM) | Fibroblasts (BJ) MTT (Fibroblasts (BJ); 200 µM) | Fibroblasts (BJ) MTT (Fibroblasts (BJ); 250 µM) | Primary melanocytes LDH (Primary melanocytes; 100 µM) | Primary melanocytes LDH (Primary melanocytes; 150 µM) | Primary melanocytes LDH (Primary melanocytes; 200 µM) | Primary melanocytes LDH (Primary melanocytes; 250 µM) | also measured |
| --- | --- | --- | --- | --- | --- | --- | --- | --- | --- | --- | --- | --- | --- | --- | --- | --- | --- | --- | --- | --- | --- |
| O=C(/C=C/c1ccc(Cl)cc1)NCCCCCO [Compound A-111, (2E)-3-(4-chlorophenyl)-N-(5-hydroxypentyl)prop-2-enamide] | 101.68±3.45 % of solvent control | 101.56±1.94 % of solvent control | 101.04±2.77 % of solvent control | 91.57±2.10 % of solvent control | 2.5 ± 0.7 | 4.5 ± 3.5 | 2.0 ± 2.8 | 1.60 | 4.0 ± 2.8 | 9.0 ± 5.7 | 6.0 ± 1.0 | 1.64 | 99.88±5.25 % of solvent control | 100.94±3.37 % of solvent control | 98.94±4.04 % of solvent control | 94.51±5.03 % of solvent control | 3.31 percentage of positive control | 4.95 percentage of positive control | 13.38 percentage of positive control | 18.41 percentage of positive control | DB (dicentric bridges in 1000 binucleate cells) ([1]; 200 µM): 2.0 ± 2.8; MN (number of micronuclei in 1000 binucleate cells) ([1]; 200 µM): 10.0 ± 4.2; NB (nuclear buds in 1000 binucleate cells) ([1]; 200 µM): 2.5 ± 0.7; NDI (nuclear division index) ([1]; 200 µM): 1.64; Melanin content [% control, mean ± SD] ([2]; 1.0% in 50% PEG (10 µL)): 94.95±3.57 % control; Viability [% control, mean ± SD] ([2]; 1.0% in 50% PEG (10 µL)): 101.45±6.45 % control; Melanin content [% control, mean ± SD] ([2]; 1.0% in 50% PEG (25 µL)): 81.23±6.53 % control; Viability [% control, mean ± SD] ([2]; 1.0% in 50% PEG (25 µL)): 85.67±7.25 % control; Melanin content [% control, mean ± SD] ([2]; 2.0% in 50% PEG (25 µL)): 67.26±9.18 % control; Viability [% control, mean ± SD] ([2]; 2.0% in 50% PEG (25 µL)): 106.64±7.78 % control |
| O=C(/C=C/c1ccc(Cl)cc1)NCCCO [H-330/21, (2E)-3-(4-chlorophenyl)-N-(3-hydroxypropyl)prop-2-enamide] | 102.03±1.45 % of solvent control | 101.42±2.04 % of solvent control | 97.07±2.81 % of solvent control | 94.89±1.06 % of solvent control |  |  |  |  |  |  |  |  | 100.54±5.01 % of solvent control | 94.85±3.51 % of solvent control | 85.52±3.08 % of solvent control | 76.51±1.80 % of solvent control | 5.63 percentage of positive control | 13.09 percentage of positive control | 10.91 percentage of positive control | 18.10 percentage of positive control |  |
| Cc1ccc(/C=C/C(=O)NCCCCCO)cc1 [H-415/21, (2E)-N-(5-hydroxypentyl)-3-(4-methylphenyl)prop-2-enamide] | 101.11±2.03 % of solvent control | 101.78±2.32 % of solvent control | 100.88±1.40 % of solvent control | 88.54±3.74 % of solvent control | 1.5 ± 0.7 | 12.5 ± 0.7 | 5.0 ± 1.4 | 1.54 | 3.5 ± 2.1 | 12.0 ± 2.8 | 5.5 ± 2.1 | 1.50 | 102.12±2.71 % of solvent control | 101.92±2.88 % of solvent control | 96.13±3.64 % of solvent control | 92.86±4.30 % of solvent control | 4.22 percentage of positive control | 6.01 percentage of positive control | 8.34 percentage of positive control | 14.94 percentage of positive control | DB (dicentric bridges in 1000 binucleate cells) ([1]; 200 µM): 2.5 ± 0.7; MN (number of micronuclei in 1000 binucleate cells) ([1]; 200 µM): 11.5 ± 3.5; NB (nuclear buds in 1000 binucleate cells) ([1]; 200 µM): 6.0 ± 1.4; NDI (nuclear division index) ([1]; 200 µM): 1.52 |
| O=C(/C=C/c1ccccc1)NCCCCCCO [H-425/21, (E)-N-(6-hydroxyhexyl)cinnamic acid amide] |  |  |  |  | 2.5 ± 0.7 | 11.0 ± 4.2 | 3.5 ± 0.7 | 1.56 | 2.5 ± 2.1 | 11.5 ± 0.7 | 3.5 ± 0.7 | 1.52 |  |  |  |  |  |  |  |  | DB (dicentric bridges in 1000 binucleate cells) ([1]; 200 µM): 4.5 ± 3.5; MN (number of micronuclei in 1000 binucleate cells) ([1]; 200 µM): 12.5 ± 6.4; NB (nuclear buds in 1000 binucleate cells) ([1]; 200 µM): 5.5 ± 0.7; NDI (nuclear division index) ([1]; 200 µM): 1.60; Melanin content [% control, mean ± SD] ([2]; 1.0% in 50% PEG (10 µL)): 102.98±4.25 % control; Viability [% control, mean ± SD] ([2]; 1.0% in 50% PEG (10 µL)): 87.16±6.30 % control |
| O=C(/C=C/c1ccc(Cl)cc1)NCCO [H-427/21, (2E)-3-(4-chlorophenyl)-N-(2-hydroxyethyl)prop-2-enamide] | 100.47±3.65 % of solvent control | 98.15±2.63 % of solvent control | 99.24±3.00 % of solvent control | 89.94±4.66 % of solvent control |  |  |  |  |  |  |  |  | 101.82±3.99 % of solvent control | 100.76±3.34 % of solvent control | 100.37±3.92 % of solvent control | 98.13±2.81 % of solvent control | 3.93 percentage of positive control | 4.44 percentage of positive control | 4.31 percentage of positive control | 15.01 percentage of positive control |  |
